The target in this assay is Stk1 kinase domain (Staphylococcus aureus, UniProt A0A0H2XGG5). Description: […]-ATP autoradiography, autophosphorylation and MBP phosphorylation. As to conditions: […] kinase domain, […] MBP, […] ATP, […] MnCl2, pH […] °C. The assay is classed as biochemical.

4 molecules from PMC6779124 (ACS infectious diseases, 2018) can be followed below.

Turning to `CN1CCN(c2ccc(Nc3nccc(-c4cnn5ncccc45)n3)cc2)CC1` [CAF045, N-(4-(4-Methylpiperazin-1-yl)phenyl)-4-(pyrazolo-[1,5-b]pyridazin-3-yl)pyrimidin-2-amine], the “32P-ATP autoradiography, autophosphorylation and MBP phosphorylation” value (“32P-ATP autoradiography” below) was “CAF045 and CAF077, displayed an intermediate phenotype with partial Stk1 inhibition”. In the case of `CN1CCN(c2ccc(Nc3nccc(-c4cnn5ncccc45)n3)cc2F)CC1` [CAF052, N-(3-Fluoro-4-(4-methylpiperazin-1-yl)phenyl)-4-(pyrazolo[1,5-b]pyridazin-3-yl)pyrimidin-2-amine], the “32P-ATP autoradiography” value (inhibitor […]) is “CAF052 and CAF078 robustly inhibited Stk1 kinase activity like the GW779439X control”. As to `CN1CCN(c2cccc(Nc3nccc(-c4cnn5ncccc45)n3)c2)CC1` [CAF077, N-(3-(4-Methylpiperazin-1-yl)phenyl)-4-(pyrazolo-[1,5-b]pyridazin-3-yl)pyrimidin-2-amine], the “32P-ATP autoradiography” value was “CAF045 and CAF077, displayed an intermediate phenotype with partial Stk1 inhibition”. The same measure, in the same setting: the value for `CN1CCN(c2ccc(Nc3nccc(-c4cnn5ncccc45)n3)cc2C#N)CC1` [CAF078, 2-(4-Methylpiperazin-1-yl)-5-((4-(pyrazolo-[1,5-b]-pyridazin-3-yl)pyrimidin-2-yl)amino)benzonitrile] was “CAF052 and CAF078 robustly inhibited Stk1 kinase activity like the GW779439X control”.
